# Assay results from patent US10239832B2, “N-(1-hydroxy-3-(pyrrolidinyl)propan-2-yl)pyrrolidine-3-carboxamide derivatives as glucosylceramide synthase inhibitors” (BIOMARIN PHARMACEUTICAL INC., priority 2013, dated 2019).
# Molecular target: T1, GCS (Canis lupus familiaris, UniProt A0A8I3MXG6)
# T1 construct: endogenous in cells; host or cells: MDCK (Madin-Darby canine kidney) cells, whole-cell lysate
# T1 sequence (A0A8I3MXG6 1-394): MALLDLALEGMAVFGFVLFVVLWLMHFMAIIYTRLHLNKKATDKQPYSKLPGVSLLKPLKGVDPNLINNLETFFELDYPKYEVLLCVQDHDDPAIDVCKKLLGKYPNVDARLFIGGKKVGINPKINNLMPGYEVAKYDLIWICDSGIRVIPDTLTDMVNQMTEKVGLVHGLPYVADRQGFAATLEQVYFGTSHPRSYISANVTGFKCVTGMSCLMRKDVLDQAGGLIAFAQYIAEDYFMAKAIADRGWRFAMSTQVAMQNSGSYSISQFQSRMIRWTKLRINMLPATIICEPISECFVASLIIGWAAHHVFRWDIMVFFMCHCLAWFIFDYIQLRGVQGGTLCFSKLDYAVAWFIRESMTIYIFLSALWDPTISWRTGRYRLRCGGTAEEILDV
# Assay: GCS enzymatic assay (MDCK cell lysate, NBD-ceramide to glucosylceramide, LC/MS)
# Assay type: biochemical, canine
# Conditions: Table 2; class symbols A, B, C; the table does not say which of the assays; read-out: Data Range (IC50 values)
# Outline: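 IC50 or percent inhibition came from LC/MS/MS (ESI+, MRM) of NBD-ceramide and glucosylceramide, with tolbutamide as internal standard. The reaction used MDCK (canine) cell lysate as the enzyme source and was ended with acetonitrile. Mock wells received 0.1% DMSO.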
row,IC50 [nM],Compound
1,1 to 30,"O=C(N[C@H](CN1CCC1)[C@H](O)c1cc(F)c2c(c1)OCCO2)[C@@H]1CCN(c2ccc3cc(F)ccc3c2)C1 [Compound 47, (R)-N-((1R,2R)-3-(azetidin-1-yl)-1-(8-fluoro-2,3-dihydrobenzo[b][1,4]dioxin-6-yl)-1-hydroxypropan-2-yl)-1-(6-fluoronaphthalen-2-yl)pyrrolidine-3-carboxamide]"
2,1 to 30,"O=C(N[C@H](CN1CCC1)[C@H](O)c1cc(F)c2c(c1)OCCO2)C1CCN(c2ccc3cc(F)ccc3c2)C1 (stereo partly drawn) [Compound 47A, N-((1R,2R)-3-(azetidin-1-yl)-1-(8-fluoro-2,3-dihydrobenzo[b][1,4]dioxin-6-yl)-1-hydroxypropan-2-yl)-1-(6-fluoronaphthalen-2-yl)pyrrolidine-3-carboxamide]"
3,30 to 100,"O=C(N[C@H](CN1CCC1)[C@H](O)c1cc(F)c2c(c1)OCCO2)[C@H]1CCN(c2ccc3cc(F)ccc3c2)C1 [Compound 47B, (S)-N-((1R,2R)-3-(azetidin-1-yl)-1-(8-fluoro-2,3-dihydrobenzo[b][1,4]dioxin-6-yl)-1-hydroxypropan-2-yl)-1-(6-fluoronaphthalen-2-yl)pyrrolidine-3-carboxamide]"
4,1 to 30,"O=C(N[C@H](CN1CCCC1)[C@H](O)c1cc(F)c2c(c1)OCCO2)[C@@H]1CCN(c2ccccn2)C1 [Compound 48, (R)-N-((1R,2R)-1-(8-fluoro-2,3-dihydrobenzo[b][1,4]dioxin-6-yl)-1-hydroxy-3-(pyrrolidin-1-yl)propan-2-yl)-1-(pyridin-2-yl)pyrrolidine-3-carboxamide]"
5,30 to 100,"CN1CCC(Oc2ccc([C@@H](O)[C@@H](CN3CCCC3)NC(=O)[C@@H]3CCN(c4ccc(Cl)cc4)C3)cc2Cl)CC1 [Compound 49, (R)-N-((1R,2R)-1-(3-chloro-4-((1-methylpiperidin-4-yl)oxy)phenyl)-1-hydroxy-3-(pyrrolidin-1-yl)propan-2-yl)-1-(4-chlorophenyl)pyrrolidine-3-carboxamide]"
6,1 to 30,"O=C(N[C@H](CN1CCCC1)[C@H](O)c1ccc(OC2CCOCC2)c(Cl)c1)[C@@H]1CCN(c2ccc3cc(F)ccc3c2)C1 [Compound 50, (R)-N-((1R,2R)-1-(3-chloro-4-((tetrahydro-2H-pyran-4-yl)oxy)phenyl)-1-hydroxy-3-(pyrrolidin-1-yl)propan-2-yl)-1-(6-fluoronaphthalen-2-yl)pyrrolidine-3-carboxamide]"
7,1 to 30,"O=C(N[C@H](CN1CCCC1)[C@H](O)c1cc(F)c2c(c1)OCCO2)[C@@H]1CCN(c2ccc3cc(F)ccc3c2)C1 [Compound 52, (R)-N-((1R,2R)-1-(8-fluoro-2,3-dihydrobenzo[b][1,4]dioxin-6-yl)-1-hydroxy-3-(pyrrolidin-1-yl)propan-2-yl)-1-(6-fluoronaphthalen-2-yl)pyrrolidine-3-carboxamide]"
8,30 to 100,"O=C(N[C@H](CN1CCCC1)[C@H](O)c1ccc2c(c1)OCCO2)C1CCN(c2ccc3ccsc3c2)C1 (stereo partly drawn) [Compound 53C, 1-(benzo[b]thiophen-6-yl)-N-((1R,2R)-1-(2,3-dihydrobenzo[b][1,4]dioxin-6-yl)-1-hydroxy-3-(pyrrolidin-1-yl)propan-2-yl)pyrrolidine-3-carboxamide]"
9,1 to 30,"O=C(N[C@H](CN1CCCC1)[C@H](O)c1ccc2c(c1)OCCO2)[C@H]1CCN(c2ccc3ccsc3c2)C1 [Compound 53D, (S)-1-(benzo[b]thiophen-6-yl)-N-((1R,2R)-1-(2,3-dihydrobenzo[b][1,4]dioxin-6-yl)-1-hydroxy-3-(pyrrolidin-1-yl)propan-2-yl)pyrrolidine-3-carboxamide]"
10,1 to 30,"O=C(N[C@H](CN1CCCC1)[C@H](O)c1ccc(OC2CC2)c(Cl)c1)[C@@H]1CCN(c2ccccn2)C1 [Compound 54, (R)-N-((1R,2R)-1-(3-chloro-4-cyclopropoxyphenyl)-1-hydroxy-3-(pyrrolidin-1-yl)propan-2-yl)-1-(pyridin-2-yl)pyrrolidine-3-carboxamide]"

# Same assay, conditions: Table 2; class symbols D, E, F, NA (not active); the table does not say which of the assays
row,Data Range (% inhibition),Compound
1,F (1-49% (or less than 50%)),"O=C(N[C@H](CN1CCCC1)[C@H](O)c1cc(F)c2c(c1)OCCO2)[C@H]1CCN(c2ccccn2)C1 [Compound 48A, (S)-N-((1R,2R)-1-(8-fluoro-2,3-dihydrobenzo[b][1,4]dioxin-6-yl)-1-hydroxy-3-(pyrrolidin-1-yl)propan-2-yl)-1-(pyridin-2-yl)pyrrolidine-3-carboxamide]"
2,F (1-49% (or less than 50%)),"CN1CCC(Oc2ccc([C@@H](O)[C@@H](CN3CCCC3)NC(=O)[C@H]3CCN(c4ccc(Cl)cc4)C3)cc2Cl)CC1 [Compound 49A, (S)-N-((1R,2R)-1-(3-chloro-4-((1-methylpiperidin-4-yl)oxy)phenyl)-1-hydroxy-3-(pyrrolidin-1-yl)propan-2-yl)-1-(4-chlorophenyl)pyrrolidine-3-carboxamide]"
3,E (50-74% (or less than 75%)),"O=C(N[C@H](CN1CCCC1)[C@H](O)c1ccc(OC2CCOCC2)c(Cl)c1)[C@H]1CCN(c2ccc3cc(F)ccc3c2)C1 [Compound 50A, (S)-N-((1R,2R)-1-(3-chloro-4-((tetrahydro-2H-pyran-4-yl)oxy)phenyl)-1-hydroxy-3-(pyrrolidin-1-yl)propan-2-yl)-1-(6-fluoronaphthalen-2-yl)pyrrolidine-3-carboxamide]"
4,F (1-49% (or less than 50%)),"CC1(C)CCc2cc([C@@H](O)[C@@H](CN3CCCC3)NC(=O)[C@@H]3CCN(c4ccc(Cl)cc4)C3)ccc2O1 [Compound 51, (R)-1-(4-chlorophenyl)-N-((1R,2R)-1-(2,2-dimethylchroman-6-yl)-1-hydroxy-3-(pyrrolidin-1-yl)propan-2-yl)pyrrolidine-3-carboxamide]"
5,E (50-74% (or less than 75%)),"O=C(N[C@H](CN1CCCC1)[C@H](O)c1cc(F)c2c(c1)OCCO2)[C@H]1CCN(c2ccc3cc(F)ccc3c2)C1 [Compound 52A, (S)-N-((1R,2R)-1-(8-fluoro-2,3-dihydrobenzo[b][1,4]dioxin-6-yl)-1-hydroxy-3-(pyrrolidin-1-yl)propan-2-yl)-1-(6-fluoronaphthalen-2-yl)pyrrolidine-3-carboxamide]"
6,E (50-74% (or less than 75%)),"O=C(N[C@H](CN1CCCC1)[C@H](O)c1ccc2c(c1)OCCO2)[C@@H]1CCN(c2ccc3ccsc3c2)C1 [Compound 53, (R)-1-(benzo[b]thiophen-6-yl)-N-((1R,2R)-1-(2,3-dihydrobenzo[b][1,4]dioxin-6-yl)-1-hydroxy-3-(pyrrolidin-1-yl)propan-2-yl)pyrrolidine-3-carboxamide]"
7,F (1-49% (or less than 50%)),"O=C(N[C@H](CN1CCCC1)[C@H](O)c1ccc(OC2CC2)c(Cl)c1)[C@H]1CCN(c2ccccn2)C1 [Compound 54A, (S)-N-((1R,2R)-1-(3-chloro-4-cyclopropoxyphenyl)-1-hydroxy-3-(pyrrolidin-1-yl)propan-2-yl)-1-(pyridin-2-yl)pyrrolidine-3-carboxamide]"

row,Compound,Data Range (% inhibition)
1,"CC1(C)CCc2cc([C@@H](O)[C@@H](CN3CCCC3)NC(=O)[C@H]3CCN(c4ccc(Cl)cc4)C3)ccc2O1 [Compound 51A, (S)-1-(4-chlorophenyl)-N-((1R,2R)-1-(2,2-dimethylchroman-6-yl)-1-hydroxy-3-(pyrrolidin-1-yl)propan-2-yl)pyrrolidine-3-carboxamide]",NA (not active—a negative value was generated for % inhibition)
